# Structures can show the parent of a compound that is named as a salt.
# Test system: relapsed AML cells
# Assay: Drug sensitivity assay, 1,536-well, 3-day culture with individual approved drugs at 10 μM, viability by alamarBlue
# Assay type: cell-based, human
# Conditions: number of relapsed AML cases out of 18 tested with >70% cell death; 10 μM, 3-day culture
# How it was run: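 FACS-sorted viable myeloid blasts from thawed AML samples, 4,000-4,500 cells per 5 μL well, cultured in IMDM with 15% BIT, SCF, FLT3L, IL-3, G-CSF. Drugs added per well; after three days percentage of live cells measured to gauge killing.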
row,Compound,#Cases >70% cell death
1,CC[C@]1(O)C[C@@H]2CN(CCc3c([nH]c4ccccc34)[C@@](C(=O)OC)(c3cc4c(cc3OC)N(C)[C@H]3[C@@](O)(C(=O)OC)[C@H](OC(C)=O)[C@]5(CC)C=CCN6CC[C@]43[C@@H]65)C2)C1 [VINBLASTINE],14
2,O=C(O)CCCCN(CCc1ccccc1OCc1ccc(CCc2ccccc2)cc1)Cc1ccc(C(=O)O)cc1,1
3,COC(=O)Nc1nc2ccc(Sc3ccccc3)cc2[nH]1 [FENBENDAZOLE],5
4,CN1CCCC(n2nc(Cc3ccc(Cl)cc3)c3ccccc3c2=O)CC1 (centres unmarked) [AZELASTINE],2
5,O=C(O)c1ccccc1C(=O)Nc1ccc(S(=O)(=O)Nc2nccs2)cc1 [PHTHALYLSULFATHIAZOLE],1
6,CC(C)Oc1ccc(C(=O)N[C@H](CNC(=O)CN(C)C)Cc2ccc(-c3cn4cccc([C@H](C)O)c4n3)cc2)cc1Cl [GSK923295],8
7,O=C1CC2(CCCC2)CC(=O)N1CCNCC1COc2ccccc2O1 (centres unmarked) [BINOSPIRONE MESYLATE],1
8,Nc1c2ccccc2nc2ccccc12 [AMINACRINE],18
9,CN1CCc2c(c3ccccc3n2Cc2ccccc2)C1 [MEBHYDROLIN],1
10,CCn1cc(C(=O)O)c(=O)c2cnc(N3CCCC3)nc21 [PIROMIDIC ACID],5
11,O=C(Nc1ccccc1Br)N[C@@H]1CCN(c2ccc(C(F)(F)F)cn2)C1 [SB-705498],1
12,EPRINOMECTIN,5
13,CCC(=O)O[C@]1(C(=O)SCF)[C@H](C)C[C@H]2[C@@H]3C[C@H](F)C4=CC(=O)C=C[C@]4(C)[C@@]3(F)[C@@H](O)C[C@@]21C [FLUTICASONE PROPIONATE],3
14,CC[C@@]1(O)C(=O)OCc2c1cc1n(c2=O)Cc2cc3ccccc3nc2-1 [CAMPTOTHECIN],12
15,C[C@H]1C[C@H]2[C@@H]3CCC4=CC(=O)C=C[C@]4(C)[C@@]3(F)[C@@H](O)C[C@]2(C)[C@@]1(O)C(=O)CO [BETAMETHASONE],1
16,Oc1c(I)cc(Cl)c2cccnc12 [CLIOQUINOL],6
17,CC[C@@]1(O)C(=O)OCc2c1cc1n(c2=O)Cc2cc3cc(O)ccc3nc2-1 [10-HYDROXYCAMPTOTHECIN],12
18,CCOC(=O)/C=C(C)/C=C/C=C(C)/C=C/c1c(C)cc(OC)c(C)c1C [ETRETINATE],1
19,CC(=O)OC[C@H]1O[C@@H]([S-])[C@H](OC(C)=O)[C@@H](OC(C)=O)[C@@H]1OC(C)=O.CCP(CC)CC.[Au+] [AURANOFIN],17
20,CN1C[C@H](C(=O)N[C@]2(C)O[C@@]3(O)[C@@H]4CCCN4C(=O)[C@H](Cc4ccccc4)N3C2=O)C[C@@H]2c3cccc4[nH]cc(c34)C[C@H]21 [DIHYDROERGOTAMINE MESYLATE],1
21,CCN(CC)CCNc1ccc(CO)c2sc3ccccc3c(=O)c12 [HYCANTHONE],9
22,CNC(=O)c1cc(Oc2ccc(NC(=O)Nc3ccc(Cl)c(C(F)(F)F)c3)c(F)c2)ccn1 [REGORAFENIB],9
23,Nc1nc2nn[nH]c2c(=O)[nH]1 [8-AZAGUANINE],1
24,N#Cc1ccc2[nH]cc(CCCCN3CCN(c4ccc5oc(C(N)=O)cc5c4)CC3)c2c1 [VILAZODONE],2
25,Nc1nc(F)nc2c1ncn2[C@@H]1O[C@H](CO)[C@@H](O)[C@@H]1O [FLUDARABINE],16

row,Compound,#Cases >70% cell death
1,CS(=O)(=O)N1CCc2c(-c3cnc(N)nc3)nc(N3CCOCC3)nc21 [CH5132799],3
2,Nc1ccc2cc3ccc(N)cc3nc2c1 [PROFLAVINE HEMISULFATE],3
3,CO[C@H]1C[C@H](O[C@H]2[C@H](C)O[C@@H](O[C@@H]3/C(C)=C/C[C@@H]4C[C@@H](C[C@]5(C=C[C@H](C)[C@@H](C6CCCCC6)O5)O4)OC(=O)[C@@H]4C=C(C)[C@@H](O)[C@H]5OC/C(=C\C=C\[C@@H]3C)[C@]54O)C[C@@H]2OC)O[C@@H](C)[C@@H]1O [DORAMECTIN],18
4,CC(C)c1cc(C(C)C)c(-c2csc(N(CCN(C)C)Cc3cccnc3)n2)c(C(C)C)c1 [FOROPAFANT],6
5,NC[C@H]1O[C@H](O[C@H]2[C@H](O)[C@@H](O[C@H]3O[C@H](CO)[C@@H](O)[C@H](N)[C@H]3O)[C@H](N)C[C@@H]2N)[C@H](N)C[C@@H]1O [TOBRAMYCIN],1
6,"C=CCNC1=C2C[C@@H](C)C[C@H](OC)[C@H](O)[C@@H](C)/C=C(\C)[C@H](OC(N)=O)[C@@H](OC)/C=C\C=C(/C)C(=O)NC(=CC1=O)C2=O [TANESPIMYCIN (17-AAG), TANESPIMYCIN]",18
7,CC1(C)CC[C@]2(C(=O)O)CC[C@]3(C)[C@H](C(=O)C=C4[C@@]5(C)C=C(C#N)C(=O)C(C)(C)[C@@H]5CC[C@]43C)[C@@H]2C1 [BARDOXOLONE],12
8,CC(C)C[C@H](NC(=O)CNC(=O)c1cc(Cl)ccc1Cl)B1OC(=O)C(CC(=O)O)(CC(=O)O)O1 [MLN9708],1
9,Clc1ccc(C(Cn2ccnc2)OCc2csc3c(Cl)cccc23)c(Cl)c1 (centres unmarked) [SERTACONAZOLE],2
10,Cc1cnc(C(=O)O)c[n+]1[O-] [ACIPIMOX],1
11,O=C(Nc1ccc([N+](=O)[O-])cc1Cl)c1cc(Cl)ccc1O [NICLOSAMIDE],1
12,Cc1cc(CC(C)CC(C)(C)C)n(O)c(=O)c1.NCCO (centres unmarked) [PIROCTONE OLAMINE],13
13,Cn1nnc2c(C(N)=O)ncn2c1=O [TEMOZOLAMIDE],14
14,CC(C)(C)NCC(O)c1ccc(O)c(CO)c1 (centres unmarked) [ALBUTEROL],1
15,OC1(c2ccc(Cl)c(C(F)(F)F)c2)CCN(CCCC(c2ccc(F)cc2)c2ccc(F)cc2)CC1 [PENFLURIDOL],14
16,CC[n+]1c(-c2ccccc2)c2cc(N)ccc2c2ccc(N)cc21 [HOMIDIUM BROMIDE],1
17,CC1=C(/C=C/C(C)=C/C=C/C(C)=C/C(=O)Nc2ccc(O)cc2)C(C)(C)CCC1 [FENRETINIDE],9
18,CO[C@H]1C(=O)[C@]2(C)[C@@H](OC)C[C@H]3OC[C@@]3(OC(C)=O)[C@H]2[C@H](OC(=O)c2ccccc2)[C@]2(O)C[C@H](OC(=O)[C@H](O)[C@@H](NC(=O)OC(C)(C)C)c3ccccc3)C(C)=C1C2(C)C [CABAZITAXEL],5
19,CN1CCc2cccc3c2[C@H]1Cc1ccc(O)c(O)c1-3 [APOMORPHINE],5
20,OCCN1CCN(CCCN2c3ccccc3Sc3ccc(Cl)cc32)CC1 [PERPHENAZINE],2
21,CC(C)(Sc1cc(C(C)(C)C)c(O)c(C(C)(C)C)c1)Sc1cc(C(C)(C)C)c(O)c(C(C)(C)C)c1 [PROBUCOL],4
22,N#CC[C@H](C1CCCC1)n1cc(-c2ncnc3[nH]ccc23)cn1 [RUXOLITINIB],6
23,NC(=O)Nc1cc(-c2cccc(F)c2)sc1C(=O)N[C@H]1CCCNC1 [AZD-7762],14
24,CC[C@]1(O)C[C@@H]2CN(CCc3c([nH]c4ccccc34)[C@@](C(=O)OC)(c3cc4c(cc3OC)N(C)[C@H]3[C@@](O)(C(N)=O)[C@H](O)[C@]5(CC)C=CCN6CC[C@]43[C@@H]65)C2)C1,9
25,CCC(C)n1ncn(-c2ccc(N3CCN(c4ccc(OCC5COC(Cn6cncn6)(c6ccc(Cl)cc6Cl)O5)cc4)CC3)cc2)c1=O (centres unmarked) [ITRACONAZOLE],6
